Experimental data published in patent US4435569A, “5-[Substituted amino methyl]pyrrolo[2,3-d]pyrimidine-4-one” (Takeda Chemical Industries, Ltd., priority 1981, dated 1984).
Structures can show the parent of a compound that is named as a salt. Each block holds one molecule with its values, some of them ahead of it.

What was measured:
Ehlrich carcinoma cells = experiment: Growth inhibition of transplanted Ehrlich carcinoma in mice (Experimental Example 1 repeated); assay type: in vivo, mouse; settings: mice with Ehrlich carcinoma; as Experimental Example 1: 0.5 mg/kg i.p. once daily for 20 days; day 35
Description: (§1) One×10^6 Sarcoma 180 cells were subcutaneously transplanted into the right groin of an ICR mouse weighing about 20 grams and starting 24 hours after transplantation, 0.5 mg/kg of the compound of Example 1 in distilled water for injection was intraperitoneally administered once daily for 20 consecutive days. On day 35 after transplantation, the tumorous node was incised, weighed and compared with the specimen of the control (without medication) group. The percent inhibition was 58% relative to the control.
The experiment described in Experimental Example 1 was repeated except that mice transplanted with Ehlrich carcinoma cells were employed.

Sarcoma 180 = experiment: Growth inhibition of subcutaneously transplanted Sarcoma 180 in ICR mouse (tumor weight); assay type: in vivo; settings: 1×10^6 cells s.c., 0.5 mg/kg i.p. once daily for 20 consecutive days from 24 h, day 35
Description: as §1

L5178Y cells = experiment: Inhibitory effect upon the multiplication of tumor cells (L5178Y); assay type: cell-based; settings: Mus musculus, RPMI1640 + 10% fetal calf serum, 48 hours, 37° C., concentration giving cell count of 50% of control, read-out: ED50 (the source's name)
Description: Inhibitory effect upon the multiplication of tumor cells
The inhibitory effects of compound (I) upon the multiplication of cells were detected using L5178Y cells (tumor cell) in RPMI1640 medium+10% fetal calf serum for 48 hours at 37° C.
The result was expressed in the concentration of the drug giving a cell count of 50% (ED50) with the average number of cells for the control (not medicated) group on the 2nd day being taken as 100%.

IC50 (L5178Y cells): 30 µg/mL
Structure (SMILES): Nc1nc2[nH]cc(CNCc3ccccc3)c2c(=O)[nH]1 [Example 4, 2-amino-5-benzylaminomethylpyrrolo[2,3-d]pyrimidin-4-one]

IC50 (L5178Y cells): > 200 µg/mL
Structure (SMILES): Nc1nc2[nH]cc(CN[C@H]3C=C[C@H](O)[C@@H]3O)c2c(=O)[nH]1 [Q base, reference compound]

More lines, now with the values behind:

Structure (SMILES): CCCNCc1c[nH]c2nc(N)[nH]c(=O)c12 [Example 1, 2-amino-5-propylaminomethylpyrrolo[2,3-d]pyrimidin-4-one (dihydrochloride)]
percent inhibition rate (tumor weight relative to control) (Ehlrich carcinoma cells): 75% | percent inhibition (tumor weight relative to control) (Sarcoma 180): 58%

Structure (SMILES): Nc1nc2[nH]cc(CNC3CCCC3)c2c(=O)[nH]1 [Example 2, 2-amino-5-cyclopentylaminomethylpyrrolo[2,3-d]pyrimidin-4-one(dihydrochloride)]
IC50 (L5178Y cells): 40 µg/mL

Structure (SMILES): Nc1nc2[nH]cc(CN3CCCCC3)c2c(=O)[nH]1 [Example 3, 2-amino-5-piperidinomethylpyrrolo[2,3-d]pyrimidin-4-one (dihydrochloride)]
IC50 (L5178Y cells): 120 µg/mL
